# Laboratory results: PMC10096180, “Half-Sandwich Type Platinum-Group Metal Complexes of C-Glucosaminyl Azines: Synthesis and Antineoplastic and Antimicrobial Activities” (Molecules, 2023)
# Where two headings read alike, the source gives them in different places.
# Key:
# [1] = system: vancomycin-resistant Enterococcus (VRE) clinical isolates; assay: Broth microdilution MIC, clinical VRE isolates; format: cell-based, E. faecium; conditions: 24 h, 0.08–40 μM
# Experimental: (§1) We used a set of clinical isolates of S. aureus and E. faecium that were collected at the Medical Center of the University of Debrecen (Hungary) between 1 January 2018. and 31 December 2020. The clinical isolates were identified using a Microflex MALDI-TOF mass spectrometer (Bruker, Billerica, MA, USA). The antibiotic susceptibility of the isolates was tested following the European Committee on Antimicrobial Susceptibility Testing (EUCAST) guidelines, which were valid at the time of collection.
# (§2) Microdilution experiments were performed according to the standards of EUCAST [85]. The bacterial isolates to be tested were grown on Mueller–Hinton agar plates. The inoculum density of bacteria was set at 5.0 × 10^5 CFU/mL in microtiter plates in a final volume of 200 μL Mueller–Hinton broth. The tested concentration range was 0.08–40 μM (10 concentrations, twofold serial dilutions), and a drug-free growth control and an inoculum-free negative control were included. The inoculated plates were incubated for 24 h at 37 °C, then visually assessed. Minimum inhibitory concentration (MIC) was defined as the lowest concentration with a 50%≤ inhibitory effect compared to the growth control. All experiments were performed at least twice in duplicate.
# [2] = Distribution coefficient (logD), n-octanol-PBS; format: physicochemical; conditions: n-octanol-PBS (pH = 7.4) system
# Experimental: The logD values of the newly synthesized complexes were determined according to a procedure described in our previous publications. page 64: Ir-7b +1.17 Rh-7b +1.41 Ru-7c +1.31 Os-7c +1.59 Ir-7c +1.40 Rh-7c +1.13 Ru-7d +1.26 Os-7d +1.42 Ir-7d +1.30 Rh-7d +1.04 Ru-7e +2.22 Os-7e +2.21 Ir-7e +1.39 Rh-7e +1.66 *logD was determined in an n-octanol-PBS (pH = 7.4) system 64 (14 pictures or pasted objects on this page, not shown here)
# [3] = system: primary human dermal fibroblasts; assay: MTT reduction assay, early toxicity, 4 h treatment; format: cell-based; conditions: up to 100 μM
# Experimental: (§3) The complexes described above are intended to replace registered platinum complexes. Platinum complexes constitute the core of the chemotherapy regimen used in ovarian cancer; therefore, we used a cellular model of ovarian cancer, A2780, and primary human dermal fibroblasts as models of non-transformed cells (controls). For the characterization of the complexes, we used an MTT assay after 4 h of treatment for the detection of early toxicity and an SRB assay 48 h after treatment for the detection of cytostasis.
# (§4) An MTT reduction assay was measures the activity of mitochondrial complex I and can be used to detect toxicity. The assay was performed in a manner similar to that described in [84]. Briefly, cells were plated in 96-well plates the day before the assay. Cells were treated with the compounds for 4 h; then, MTT was added to a 0.5 mg/mL final concentration, and cells were incubated at 37 °C in a cell incubator for 40–60 min as a function of the cell line being assessed. Culture medium was removed, the reduced MTT dye was dissolved in dimethyl-sulfoxide, and plates were measured in a plate photometer (Thermo Scientific Multiscan GO spectrophotometer, Waltham, MA, USA) at 540 nm. On each plate, wells were designed to contain vehicle-treated cells. In calculations, the readings for these wells were considered to 1, and all readings were expressed relative to these values.
# (§5) Statistical analysis was performed using version 8.0.1 of GraphPad Prism. Values were tested for normal distribution using the Shapiro–Wilk normality test. Nonlinear regression was performed using the built-in “[Inhibitor] vs. response—Variable slope (four parameters), least square fit” utility of GraphPad, which yielded IC50 and Hill slope values if the sigmoid curves reached a plateau of inhibition and there was no decrease between two subsequent data points or when inhibition was over 90%. In other cases, the percentage of inhibition was taken for the maximum concentration (100 μM).
# A2780 cells [4] = assay: MTT reduction assay, early toxicity, 4 h treatment; format: cell-based; conditions: for A2780 MTT Max Inhibition: inhibition at maximum concentration (100 μM) where no plateau, ND = not detectable
# Experimental: as §3, §4, §5
# [5] = system: Staphylococcus aureus (ATCC29213); assay: Broth microdilution MIC, reference strain; format: cell-based; conditions: 24 h, 0.08–40 μM, read-out: MIC S. aureus ATCC 29213
# Experimental: (§6) The reference strains of Staphylococcus aureus (ATCC29213) and Enterococcus faecalis (ATCC29212) were purchased from the ATCC (Manassas, VA, USA).
# as §2
# [6] = system: Enterococcus faecalis (ATCC29212); assay: Broth microdilution MIC, reference strain; format: cell-based; conditions: 24 h, tested range 0.08–40 μM, read-out: MIC E. faecalis ATCC 29,212
# Experimental: as §6, §2
# [7] = system: methicillin-resistant Staphylococcus aureus (MRSA) clinical isolates; assay: Broth microdilution MIC, clinical MRSA isolates; format: cell-based; conditions: 24 h, 0.08–40 μM
# Experimental: as §1, §2
# A2780 cells [8] = assay: SRB binding assay, cytostasis, 48 h treatment; format: cell-based; conditions: for A2780 SRB Max Inhibition: up to 100 μM, ND = not detectable
# Experimental: as §3
# An SRB assay measures protein content of cells in correlation with the cell number in an assay well and can therefore be used to assess cell proliferation or long-term cytostasis. Cells were seeded in 96-well plates the day before the assay. Cells were treated with the compounds for 48 h. Then medium was removed, and cells were fixed with 10% trichloroacetic acid. Fixed cells were washed in distilled water 3 times, followed by staining with SRB (0.4 m/V% dissolved in 1% acetic acid) for 10 min. Stained cells were washed in 1% acetic acid 5 times; acetic acid was removed, and cells were left to dry. Protein-bound SRB was released by adding 100 μL 10 mM Tris base. Plates were measured in a plate photometer (Thermo Scientific Multiscan GO spectrophotometer, Waltham, MA, USA) at 540 nm. On each plate, wells were designed to contain vehicle-treated cells. In calculations, the readings for these wells were considered to be 1, and all readings were expressed relative to these values.
# as §5
# [9] = clinical isolate 25,051 VRE, read-out: MIC 25,051 VRE
# [10] = clinical isolate 25,498 VRE, read-out: MIC 25,498 VRE
# [11] = clinical isolate 27,085 VRE, read-out: MIC 27,085 VRE
# [12] = clinical isolate 20,426 MRSA, read-out: MIC 20,426 MRSA
# [13] = clinical isolate 24,035 MRSA, read-out: MIC 24,035 MRSA
# [14] = clinical isolate 24,268 MRSA, read-out: MIC 24,268 MRSA
# [15] = clinical isolate 24,272 MRSA, read-out: MIC 24,272 MRSA
# [16] = clinical isolate 24,328 MRSA, read-out: MIC 24,328 MRSA
# [17] = clinical isolate 24,408 MRSA, read-out: MIC 24,408 MRSA
Compound,"MIC [1, 9]","MIC [1, 10]","MIC [1, 11]",logD [2],Fibroblast MTT Max Inhibition [3],A2780 MTT Max Inhibition (A2780 cells [4]),MIC [5],MIC [6],"MIC [7, 12]","MIC [7, 13]","MIC [7, 14]","MIC [7, 15]","MIC [7, 16]","MIC [7, 17]",IC50 (A2780 cells [8]),A2780 SRB Max Inhibition (A2780 cells [8]),IC50 (A2780 cells [4])
Cc1c(C)c(C)[c-](C)c1C.F[P-](F)(F)(F)(F)F.NC1C(c2cccnn2)OC(COC(=O)c2ccccc2)C(OC(=O)c2ccccc2)C1OC(=O)c1ccccc1.[Cl][Rh+2] (mixture of isomers) [Rh-7b],>40 µM,>40 µM,>40 µM,1.41,11.39%,62.85%,>40 µM,>40 µM,>40 µM,>40 µM,>40 µM,>40 µM,>40 µM,>40 µM,32 µM,>90%,
Cc1c(C)c(C)[c-](C)c1C.F[P-](F)(F)(F)(F)F.NC1C(c2cccnn2)OC(COC(=O)c2ccccc2)C(OC(=O)c2ccccc2)C1OC(=O)c1ccccc1.[Cl][Ir+2] (mixture of isomers) [Ir-7b],40 µM,40 µM,40 µM,1.17,27.22%,53.39%,>40 µM,40 µM,40 µM,40 µM,40 µM,40 µM,40 µM,40 µM,,77.58%,
Cc1ccc(C(C)C)cc1.F[P-](F)(F)(F)(F)F.N[C@@H]1[C@@H](OCc2ccccc2)[C@H](OCc2ccccc2)[C@@H](COCc2ccccc2)O[C@H]1c1cnccn1.[Cl][Ru+] [Ru-3d],20 µM,20 µM,20 µM,2.06,80.31%,>90%,20 µM,20 µM,20 µM,20 µM,20 µM,20 µM,20 µM,20 µM,3.77 µM,>90%,19.3 µM
Cc1ccc(C(C)C)cc1.F[P-](F)(F)(F)(F)F.N[C@@H]1[C@@H](OCc2ccccc2)[C@H](OCc2ccccc2)[C@@H](COCc2ccccc2)O[C@H]1c1cnccn1.[Cl][Os+] [Os-3d],40 µM,40 µM,40 µM,2.64,73.24%,86.83%,40 µM,>40 µM,40 µM,40 µM,40 µM,40 µM,40 µM,40 µM,6.83 µM,>90%,32.3 µM
Cc1ccc(C(C)C)cc1.F[P-](F)(F)(F)(F)F.NC1C(c2cccnn2)OC(COC(=O)c2ccccc2)C(OC(=O)c2ccccc2)C1OC(=O)c1ccccc1.[Cl][Ru+] (mixture of isomers) [Ru-7b],10 µM,10 µM,10 µM,1.39,47.04%,68.22%,20 µM,10 µM,10 µM,10 µM,10 µM,20 µM,20 µM,10 µM,17.8 µM,>90%,
Cc1ccc(C(C)C)cc1.F[P-](F)(F)(F)(F)F.NC1C(c2cccnn2)OC(COC(=O)c2ccccc2)C(OC(=O)c2ccccc2)C1OC(=O)c1ccccc1.[Cl][Os+] (mixture of isomers) [Os-7b],10 µM,10 µM,10 µM,1.32,27.22%,53.39%,20 µM,10 µM,10 µM,10 µM,10 µM,10 µM,20 µM,10 µM,56.4 µM,>90%,
